The values below come from ChEMBL document CHEMBL1201862, “PubChem BioAssay data set” (2004).

SMILES strings stand for the structures. Activity calls are given as the source filed them.

Assay [1] has as its target T1, High affinity choline transporter 1 (Homo sapiens, UniProt Q9GZV3).
T1 sequence (Q9GZV3 whole entry): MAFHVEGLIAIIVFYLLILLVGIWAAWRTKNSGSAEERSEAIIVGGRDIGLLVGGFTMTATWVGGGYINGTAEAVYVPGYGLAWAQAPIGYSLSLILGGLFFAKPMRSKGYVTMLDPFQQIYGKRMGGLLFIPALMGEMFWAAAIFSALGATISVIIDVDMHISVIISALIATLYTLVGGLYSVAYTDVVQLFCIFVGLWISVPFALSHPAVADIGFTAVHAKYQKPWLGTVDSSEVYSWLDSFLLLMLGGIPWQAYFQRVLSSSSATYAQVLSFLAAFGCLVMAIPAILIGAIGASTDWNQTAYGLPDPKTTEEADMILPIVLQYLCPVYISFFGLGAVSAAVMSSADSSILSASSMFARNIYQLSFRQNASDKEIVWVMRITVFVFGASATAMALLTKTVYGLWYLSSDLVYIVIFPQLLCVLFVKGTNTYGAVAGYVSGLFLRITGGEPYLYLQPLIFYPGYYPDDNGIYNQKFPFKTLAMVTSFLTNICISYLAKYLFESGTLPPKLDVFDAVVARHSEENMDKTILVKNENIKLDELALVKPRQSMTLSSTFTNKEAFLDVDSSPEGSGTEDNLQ
Kind of assay: CHT inhibitors, dose response, cell-based, 5-point CRC, membrane potential dye (AID 504840). The assay is classed as functional.

In assay [2] the target is T1, High affinity choline transporter 1. As to the kind of experiment: inhibitors of CHT choline uptake, dose response, cell-based, 3H-choline uptake, CHT LV-AA trafficking mutant, CRC (AID 602208). The assay is classed as functional.
Assay [3] shares this target. Kind of assay: CHT inhibitors, dose response, cell-based, 10-point CRC, membrane potential dye (AID 588401).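 Also: membrane potential dye fluorescence of choline-evoked depolarization via CHT.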 In kind it is functional.
The target of assay [4] is T2, Histone-lysine N-methyltransferase NSD2 (Homo sapiens, UniProt O96028).
T2 sequence (O96028 whole entry): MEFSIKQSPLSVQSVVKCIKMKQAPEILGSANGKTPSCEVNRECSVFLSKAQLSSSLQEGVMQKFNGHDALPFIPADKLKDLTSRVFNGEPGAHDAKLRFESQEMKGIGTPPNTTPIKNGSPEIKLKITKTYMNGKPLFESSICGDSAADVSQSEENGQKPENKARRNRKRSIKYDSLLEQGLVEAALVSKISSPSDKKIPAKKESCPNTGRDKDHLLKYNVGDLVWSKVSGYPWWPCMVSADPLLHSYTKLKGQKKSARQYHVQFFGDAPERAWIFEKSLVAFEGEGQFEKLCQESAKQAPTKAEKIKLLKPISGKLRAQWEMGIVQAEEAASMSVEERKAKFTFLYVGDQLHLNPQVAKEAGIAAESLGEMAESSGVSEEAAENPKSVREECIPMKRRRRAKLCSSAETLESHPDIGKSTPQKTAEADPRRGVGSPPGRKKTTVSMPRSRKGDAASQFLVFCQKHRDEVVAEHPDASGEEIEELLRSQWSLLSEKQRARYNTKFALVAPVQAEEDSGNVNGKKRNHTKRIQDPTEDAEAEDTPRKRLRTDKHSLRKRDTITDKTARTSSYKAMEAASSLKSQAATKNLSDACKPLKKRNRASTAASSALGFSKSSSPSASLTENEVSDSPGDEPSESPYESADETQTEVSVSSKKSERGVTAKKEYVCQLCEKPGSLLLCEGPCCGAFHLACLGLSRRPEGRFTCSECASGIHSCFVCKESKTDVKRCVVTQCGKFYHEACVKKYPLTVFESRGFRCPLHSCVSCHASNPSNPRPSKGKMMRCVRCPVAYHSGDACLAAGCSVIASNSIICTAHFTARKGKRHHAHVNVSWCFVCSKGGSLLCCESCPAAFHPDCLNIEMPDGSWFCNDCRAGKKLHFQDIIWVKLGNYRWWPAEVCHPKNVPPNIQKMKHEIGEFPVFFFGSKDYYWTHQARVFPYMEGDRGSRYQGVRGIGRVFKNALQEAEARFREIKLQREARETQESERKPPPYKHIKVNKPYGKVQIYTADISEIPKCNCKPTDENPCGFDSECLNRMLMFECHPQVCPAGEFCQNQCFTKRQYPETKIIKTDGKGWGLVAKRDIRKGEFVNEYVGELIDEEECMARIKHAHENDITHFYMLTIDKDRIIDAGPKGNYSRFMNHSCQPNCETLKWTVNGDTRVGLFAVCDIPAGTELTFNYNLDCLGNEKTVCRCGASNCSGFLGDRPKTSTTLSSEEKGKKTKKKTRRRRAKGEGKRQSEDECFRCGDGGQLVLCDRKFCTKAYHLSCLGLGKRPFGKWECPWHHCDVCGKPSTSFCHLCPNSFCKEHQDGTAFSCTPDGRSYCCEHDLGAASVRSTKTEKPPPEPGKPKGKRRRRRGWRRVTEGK
In kind it is biochemical.

Assay [5] deals with T3, Serine/threonine-protein phosphatase (Candida dubliniensis (strain CD36 / CBS 7987 / NCPF 3949 / NRRLY-17841) (Yeast), UniProt B9W6M3).
T3 sequence (B9W6M3 whole entry): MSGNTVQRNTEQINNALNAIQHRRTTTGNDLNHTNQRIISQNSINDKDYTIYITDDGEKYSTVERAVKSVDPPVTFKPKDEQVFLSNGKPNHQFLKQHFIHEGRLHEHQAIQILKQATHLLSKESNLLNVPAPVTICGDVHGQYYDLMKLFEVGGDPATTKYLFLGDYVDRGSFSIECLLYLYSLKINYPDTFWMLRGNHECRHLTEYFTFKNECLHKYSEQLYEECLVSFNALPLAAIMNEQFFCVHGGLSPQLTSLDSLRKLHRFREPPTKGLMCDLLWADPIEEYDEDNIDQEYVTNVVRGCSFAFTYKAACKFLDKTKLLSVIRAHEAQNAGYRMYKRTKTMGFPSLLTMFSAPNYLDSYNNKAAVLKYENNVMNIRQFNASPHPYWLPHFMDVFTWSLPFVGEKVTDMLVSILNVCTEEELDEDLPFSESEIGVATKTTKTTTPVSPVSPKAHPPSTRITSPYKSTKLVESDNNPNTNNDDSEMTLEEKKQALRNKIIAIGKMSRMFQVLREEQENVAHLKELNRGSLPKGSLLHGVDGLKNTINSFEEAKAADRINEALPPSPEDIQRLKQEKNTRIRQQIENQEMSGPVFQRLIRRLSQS
Kind of assay: calcineurin pathway inhibitors in yeast reporter, dose response, S. cerevisiae, CDRE-lacZ, luminescence, secondary (AID 2388).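 Also: yeast reporter cells carrying a calcineurin-responsive lacZ construct stimulated with calcium chloride; luminescent beta-galactosidase reporter signal in whole cells rather than isolated phosphatase activity; potency for inhibition where a drop in reporter signal means calcineurin blockade.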 The assay is classed as functional, cell-based.

Assay [6] in a line: C. albicans growth with fluconazole, confirmation, fluorescence, retest (AID 2467). In kind it is functional, cell-based.
Assay [7] concerns the target ATP-dependent molecular chaperone HSP82 (Candida albicans (strain WO-1) (Yeast), UniProt C4YTQ8). Kind of assay: loss of DOC-induced GRE-beta-galactosidase reporter signal, dose response, Hsp90 inhibitor project, S. cerevisiae, luminescence (AID 2400).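 Also: beta-galactosidase luminescence from glucocorticoid response element reporter as proxy for Hsp90 function; inhibitor potency where signal loss means Hsp90 inhibition.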 The assay is classed as functional, cell-based.
The nature of assay [8]: NIH-3T3 fibroblast cytotoxicity, dose response, cytotoxicity control, cell-based, fluorescence, Alamar Blue, secondary assay (AID 2327).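 Also: NIH-3T3 mouse fibroblasts cultured with fluconazole at 8 µg/mL.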 The assay is classed as functional. For orientation: The colour change of resazurin is a common sign of viable cells or microbes.
Assay [9] deals with Potassium voltage-gated channel subfamily KQT member 2 (Rattus norvegicus, UniProt O88943). As to the kind of experiment: KCNQ2 potassium channel inhibitors, dose response, cell-based, automated electrophysiology, set II, rat KCNQ2 (AID 588637). In kind it is functional.
The target in assay [10] is Ras and Rab interactor 1/Tyrosine-protein kinase ABL1 (Homo sapiens, UniProt P00519+Q13671). In kind it is functional.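 Also: biochemical TR-FRET dose-response test measuring inhibition of binding between Rin1 and Abl proteins.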
For assay [11], the target named is Tyrosine-protein phosphatase non-receptor type 11 (Homo sapiens, UniProt Q06124). Kind of assay: SHP2 phosphatase inhibition, dose response, selectivity assay for STEP inhibitor project, biochemical (AID 602367). Conditions: read-out: IC50_Mean. The assay is classed as functional.
Assay [12] concerns the target Tyrosine-protein phosphatase non-receptor type 5 (Homo sapiens, UniProt P54829). As to the kind of experiment: STEP phosphatase inhibitors, confirmation, biochemical, fluorescence intensity, uHTS hits (AID 602372). The assay is classed as functional. Conditions: read-out: IC50_Mean.
For the next assay, the target named is T4, Caspase-6 (Homo sapiens, UniProt P55212).
T4 sequence (P55212 whole entry): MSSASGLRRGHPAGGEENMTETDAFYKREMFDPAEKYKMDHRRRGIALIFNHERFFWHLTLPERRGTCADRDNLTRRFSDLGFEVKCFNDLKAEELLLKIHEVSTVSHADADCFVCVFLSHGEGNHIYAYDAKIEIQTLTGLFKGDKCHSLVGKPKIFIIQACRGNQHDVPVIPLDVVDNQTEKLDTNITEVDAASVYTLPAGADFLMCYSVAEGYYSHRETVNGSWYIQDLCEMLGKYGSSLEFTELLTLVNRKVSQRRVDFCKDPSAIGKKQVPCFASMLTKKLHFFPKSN
Kind of assay: human caspase-6 inhibitors, dose response, biochemical, VEID-R110 fluorescence, cherry-pick (AID 720632).

In assay [13] the target is Dual specificity protein phosphatase 3 (Homo sapiens, UniProt P51452). As to the kind of experiment: VHR phosphatase inhibition, dose response, selectivity assay for STEP inhibitor project, biochemical (AID 602374). The assay is classed as functional. Conditions: read-out: IC50_Mean.
Another assay has as its target Melanocortin receptor 4 (Homo sapiens, UniProt P32245). In kind it is functional, cell-based.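 Also: Cell-based assay with luminescence read-out, confirmatory dose-response testing for agonist activity of biased ligands at MC4R; human U2OS cells with tagged receptor and beta-arrestin; potency of agonists that increase receptor coupling to beta-arrestin.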
The target in assay [14] is T5, Apoptotic protease-activating factor 1 (Homo sapiens, UniProt O14727).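 Also: caspase-3 cleavage of fluorogenic Rh110 DEVD substrate downstream of apoptosome activation.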
T5 sequence (O14727 whole entry): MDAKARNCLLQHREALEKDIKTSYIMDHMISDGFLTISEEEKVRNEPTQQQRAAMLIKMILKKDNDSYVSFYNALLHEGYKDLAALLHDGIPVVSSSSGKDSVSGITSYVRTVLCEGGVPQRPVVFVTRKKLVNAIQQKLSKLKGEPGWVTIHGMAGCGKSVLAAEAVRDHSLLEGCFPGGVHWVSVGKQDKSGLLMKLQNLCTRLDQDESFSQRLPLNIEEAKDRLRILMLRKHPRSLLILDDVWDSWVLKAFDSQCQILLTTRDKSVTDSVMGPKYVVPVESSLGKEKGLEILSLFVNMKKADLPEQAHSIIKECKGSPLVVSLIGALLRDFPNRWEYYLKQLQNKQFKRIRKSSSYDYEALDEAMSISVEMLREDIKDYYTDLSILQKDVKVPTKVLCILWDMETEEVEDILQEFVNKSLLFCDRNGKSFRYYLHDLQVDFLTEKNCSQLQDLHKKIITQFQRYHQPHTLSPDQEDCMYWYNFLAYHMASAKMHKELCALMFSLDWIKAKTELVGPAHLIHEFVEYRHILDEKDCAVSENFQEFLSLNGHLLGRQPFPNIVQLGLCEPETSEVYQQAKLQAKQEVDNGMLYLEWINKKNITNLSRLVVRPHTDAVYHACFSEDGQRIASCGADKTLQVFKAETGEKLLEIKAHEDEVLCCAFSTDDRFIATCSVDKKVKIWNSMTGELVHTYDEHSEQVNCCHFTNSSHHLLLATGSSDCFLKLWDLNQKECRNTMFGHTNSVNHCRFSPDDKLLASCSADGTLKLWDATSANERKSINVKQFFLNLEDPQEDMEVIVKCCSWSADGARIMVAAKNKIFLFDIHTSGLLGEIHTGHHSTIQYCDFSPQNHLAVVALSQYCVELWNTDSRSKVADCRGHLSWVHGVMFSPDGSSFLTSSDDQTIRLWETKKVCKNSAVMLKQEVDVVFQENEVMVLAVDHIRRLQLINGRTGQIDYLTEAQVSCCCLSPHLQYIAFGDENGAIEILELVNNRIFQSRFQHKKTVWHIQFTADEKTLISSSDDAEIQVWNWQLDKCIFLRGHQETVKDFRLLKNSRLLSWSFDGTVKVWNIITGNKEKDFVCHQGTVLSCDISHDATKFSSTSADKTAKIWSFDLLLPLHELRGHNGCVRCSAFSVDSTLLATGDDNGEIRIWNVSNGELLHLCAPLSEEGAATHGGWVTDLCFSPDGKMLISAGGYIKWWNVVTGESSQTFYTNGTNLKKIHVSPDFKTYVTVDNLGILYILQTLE
As to the kind of experiment: SAR analysis of small molecule Activators of Apaf-1 in a Fluorescent assay. The assay is classed as functional. The following applies: read-out: EC50_Mean.

For assay [15], the target named is T6, Low molecular weight phosphotyrosine protein phosphatase (Homo sapiens, UniProt P24666).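 Also: Dose-response confirmation assay measuring inhibition of LMPTP enzyme activity by fluorescence intensity read-out.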
T6 sequence (P24666 whole entry): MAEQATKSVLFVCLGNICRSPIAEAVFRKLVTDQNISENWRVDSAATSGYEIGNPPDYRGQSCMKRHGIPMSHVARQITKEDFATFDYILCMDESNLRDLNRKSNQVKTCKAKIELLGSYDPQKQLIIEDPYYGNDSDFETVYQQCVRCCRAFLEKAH
The assay is classed as functional. Conditions: read-out: IC50_Mean.

Sequence of Dual specificity protein phosphatase 3 (P51452 whole entry): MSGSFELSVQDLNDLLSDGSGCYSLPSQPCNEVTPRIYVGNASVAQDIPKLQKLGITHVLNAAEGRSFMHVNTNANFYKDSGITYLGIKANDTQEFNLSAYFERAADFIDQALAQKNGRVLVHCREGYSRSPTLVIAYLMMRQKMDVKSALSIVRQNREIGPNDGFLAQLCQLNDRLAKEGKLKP
Sequence of Ras and Rab interactor 1/Tyrosine-protein kinase ABL1 (P00519 whole entry): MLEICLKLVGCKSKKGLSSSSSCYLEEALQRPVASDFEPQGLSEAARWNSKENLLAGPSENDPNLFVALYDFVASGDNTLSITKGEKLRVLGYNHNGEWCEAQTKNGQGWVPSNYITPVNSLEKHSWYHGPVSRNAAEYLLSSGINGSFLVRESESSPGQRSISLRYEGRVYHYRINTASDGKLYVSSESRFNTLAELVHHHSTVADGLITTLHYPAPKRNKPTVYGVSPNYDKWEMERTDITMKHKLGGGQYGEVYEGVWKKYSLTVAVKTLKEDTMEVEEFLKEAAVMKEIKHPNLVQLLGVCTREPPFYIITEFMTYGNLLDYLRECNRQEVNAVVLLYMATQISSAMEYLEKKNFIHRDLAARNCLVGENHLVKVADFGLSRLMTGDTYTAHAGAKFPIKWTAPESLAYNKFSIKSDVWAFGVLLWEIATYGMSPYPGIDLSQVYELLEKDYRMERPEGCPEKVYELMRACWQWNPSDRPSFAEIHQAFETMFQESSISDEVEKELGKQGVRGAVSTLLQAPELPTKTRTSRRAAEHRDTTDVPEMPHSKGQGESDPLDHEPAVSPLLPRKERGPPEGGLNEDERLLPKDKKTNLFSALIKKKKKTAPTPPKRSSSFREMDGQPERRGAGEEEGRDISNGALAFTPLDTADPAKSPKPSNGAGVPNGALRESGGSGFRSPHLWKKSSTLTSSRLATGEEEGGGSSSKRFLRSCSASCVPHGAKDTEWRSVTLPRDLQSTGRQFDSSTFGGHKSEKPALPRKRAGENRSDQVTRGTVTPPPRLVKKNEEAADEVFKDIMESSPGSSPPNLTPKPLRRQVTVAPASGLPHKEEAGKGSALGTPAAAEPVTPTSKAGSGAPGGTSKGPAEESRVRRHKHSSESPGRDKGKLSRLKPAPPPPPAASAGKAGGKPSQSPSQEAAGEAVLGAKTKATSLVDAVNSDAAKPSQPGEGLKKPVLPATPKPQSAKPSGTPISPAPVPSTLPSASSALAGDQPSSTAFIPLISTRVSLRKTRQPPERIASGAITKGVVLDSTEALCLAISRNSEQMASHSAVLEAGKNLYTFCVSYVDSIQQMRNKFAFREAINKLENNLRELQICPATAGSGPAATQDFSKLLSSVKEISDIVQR
Sequence of Ras and Rab interactor 1/Tyrosine-protein kinase ABL1 (Q13671 whole entry): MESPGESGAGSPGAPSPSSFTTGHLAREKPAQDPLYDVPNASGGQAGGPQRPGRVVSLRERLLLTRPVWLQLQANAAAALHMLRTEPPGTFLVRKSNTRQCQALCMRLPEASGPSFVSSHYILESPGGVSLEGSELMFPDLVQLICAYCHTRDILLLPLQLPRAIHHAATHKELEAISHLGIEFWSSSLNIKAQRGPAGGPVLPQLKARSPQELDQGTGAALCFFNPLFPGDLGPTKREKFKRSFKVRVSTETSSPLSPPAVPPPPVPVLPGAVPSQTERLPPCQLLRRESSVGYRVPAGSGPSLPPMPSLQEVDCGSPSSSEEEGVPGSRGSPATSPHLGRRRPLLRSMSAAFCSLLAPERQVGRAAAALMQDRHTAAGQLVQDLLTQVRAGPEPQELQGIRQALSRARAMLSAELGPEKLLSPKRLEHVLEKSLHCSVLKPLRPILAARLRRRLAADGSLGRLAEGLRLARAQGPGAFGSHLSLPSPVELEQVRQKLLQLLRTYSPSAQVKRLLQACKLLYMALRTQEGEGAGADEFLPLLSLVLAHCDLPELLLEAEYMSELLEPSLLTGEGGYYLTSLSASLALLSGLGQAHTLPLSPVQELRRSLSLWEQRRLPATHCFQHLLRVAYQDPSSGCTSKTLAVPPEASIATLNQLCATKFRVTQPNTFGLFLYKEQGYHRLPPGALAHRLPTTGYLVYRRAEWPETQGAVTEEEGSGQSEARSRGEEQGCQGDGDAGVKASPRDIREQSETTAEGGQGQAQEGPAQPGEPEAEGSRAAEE
Sequence of ATP-dependent molecular chaperone HSP82 (C4YTQ8 whole entry): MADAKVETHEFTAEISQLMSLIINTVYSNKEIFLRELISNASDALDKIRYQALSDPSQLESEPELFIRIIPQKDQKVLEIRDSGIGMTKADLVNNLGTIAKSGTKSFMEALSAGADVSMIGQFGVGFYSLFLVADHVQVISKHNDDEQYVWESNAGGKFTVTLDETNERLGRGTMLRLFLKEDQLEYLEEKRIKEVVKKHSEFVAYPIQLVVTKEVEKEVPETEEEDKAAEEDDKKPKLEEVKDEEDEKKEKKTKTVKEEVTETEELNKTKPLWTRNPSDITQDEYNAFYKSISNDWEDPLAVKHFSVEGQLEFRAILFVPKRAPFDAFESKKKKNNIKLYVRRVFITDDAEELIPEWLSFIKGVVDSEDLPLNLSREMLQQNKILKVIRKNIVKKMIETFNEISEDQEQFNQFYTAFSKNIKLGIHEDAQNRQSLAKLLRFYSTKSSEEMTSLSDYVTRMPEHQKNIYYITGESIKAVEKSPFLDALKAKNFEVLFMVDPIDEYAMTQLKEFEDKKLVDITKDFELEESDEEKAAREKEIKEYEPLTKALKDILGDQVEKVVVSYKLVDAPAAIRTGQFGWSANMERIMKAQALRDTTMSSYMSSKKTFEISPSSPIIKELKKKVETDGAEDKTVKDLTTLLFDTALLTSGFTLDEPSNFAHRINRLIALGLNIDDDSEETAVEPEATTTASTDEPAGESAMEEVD
Sequence of Tyrosine-protein phosphatase non-receptor type 5 (P54829 whole entry): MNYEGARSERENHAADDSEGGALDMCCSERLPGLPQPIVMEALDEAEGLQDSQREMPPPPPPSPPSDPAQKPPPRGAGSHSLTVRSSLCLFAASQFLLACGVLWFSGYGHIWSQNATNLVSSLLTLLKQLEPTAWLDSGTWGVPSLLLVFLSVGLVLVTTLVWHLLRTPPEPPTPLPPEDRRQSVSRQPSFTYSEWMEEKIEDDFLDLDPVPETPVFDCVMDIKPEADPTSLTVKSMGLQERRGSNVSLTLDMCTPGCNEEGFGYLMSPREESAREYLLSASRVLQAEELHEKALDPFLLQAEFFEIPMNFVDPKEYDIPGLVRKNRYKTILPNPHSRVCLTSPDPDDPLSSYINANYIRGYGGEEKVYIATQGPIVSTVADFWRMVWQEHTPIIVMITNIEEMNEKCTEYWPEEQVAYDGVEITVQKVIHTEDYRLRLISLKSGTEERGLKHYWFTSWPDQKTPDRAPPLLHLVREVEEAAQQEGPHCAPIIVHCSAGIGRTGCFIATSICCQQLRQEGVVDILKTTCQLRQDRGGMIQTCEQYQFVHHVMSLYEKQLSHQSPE
Sequence of Melanocortin receptor 4 (P32245 whole entry): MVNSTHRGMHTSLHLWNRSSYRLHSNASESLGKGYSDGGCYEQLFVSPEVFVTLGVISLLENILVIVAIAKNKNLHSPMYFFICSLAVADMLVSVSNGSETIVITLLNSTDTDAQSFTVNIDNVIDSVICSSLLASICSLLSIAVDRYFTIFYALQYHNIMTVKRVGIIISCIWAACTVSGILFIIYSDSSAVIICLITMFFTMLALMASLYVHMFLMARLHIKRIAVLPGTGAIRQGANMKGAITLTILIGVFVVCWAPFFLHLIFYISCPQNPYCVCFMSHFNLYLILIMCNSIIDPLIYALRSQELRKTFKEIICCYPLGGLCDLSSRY
Sequence of Tyrosine-protein phosphatase non-receptor type 11 (Q06124 whole entry): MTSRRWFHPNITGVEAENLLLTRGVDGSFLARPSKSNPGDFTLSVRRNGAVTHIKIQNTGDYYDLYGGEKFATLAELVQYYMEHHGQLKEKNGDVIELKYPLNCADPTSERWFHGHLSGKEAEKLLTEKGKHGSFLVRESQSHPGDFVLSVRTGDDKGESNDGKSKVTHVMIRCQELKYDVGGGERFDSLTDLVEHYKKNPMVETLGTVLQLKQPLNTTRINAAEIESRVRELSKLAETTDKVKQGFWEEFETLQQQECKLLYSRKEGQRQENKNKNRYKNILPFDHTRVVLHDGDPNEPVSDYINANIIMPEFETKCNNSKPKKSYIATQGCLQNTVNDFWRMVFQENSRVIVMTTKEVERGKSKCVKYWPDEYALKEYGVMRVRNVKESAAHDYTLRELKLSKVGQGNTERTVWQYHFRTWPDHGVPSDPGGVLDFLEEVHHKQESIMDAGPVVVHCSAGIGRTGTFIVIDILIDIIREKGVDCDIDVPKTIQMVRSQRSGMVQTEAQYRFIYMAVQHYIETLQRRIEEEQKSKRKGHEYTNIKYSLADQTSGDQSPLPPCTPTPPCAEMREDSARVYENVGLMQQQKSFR

Take `CC1CCC(NC(=O)c2cccc(S(=O)(=O)N3CCN(C)CC3)c2)CC1` (configuration not stated): the IC50 is 4.17 µM (active) in assay [1], 4.68 µM (active) in assay [2] and 2.05 µM (active) in [3].
As for `COc1ccc(OC)c(/C=C2\SC(=S)N(NS(=O)(=O)c3ccc(C)cc3)C2=O)c1`, the half-maximal activity concentration (AC50) (in general, the midpoint of the concentration-response curve, whichever way the signal moves) in [4] was 15.9 µM (active). The EC50 in assay [5] was > 180 µM (inactive); in assay [6], 0.832 µM (active); in [7], 5.2 µM (active); in assay [8], > 150 µM (inactive).
For `CC1=C(C(=O)NC(C)c2ccc3c(c2)OCCO3)C2(CCC(C)CC2)OC1=O` (configuration not stated), the IC50 in [9] was 12 µM (active).
On to `O=C1CNC(=O)/C1=C\NC12CC3CC(CC(C3)C1)C2`, for which the IC50 in [10] was 21 µM (inactive).
With `O=C(Nc1cccc2c(=O)[nH][nH]c(=O)c12)c1ccc([N+](=O)[O-])cc1`, the figures for the IC50 in assay [11], in assay [12] and in assay [13] were 3.01 µM (active), 14.2 µM (active) and 4.92 µM (active), respectively. Also, the AC50 on Caspase-6 is 2.58 µM (active).
For the compound `COc1ccc(-c2cnc3c(NC(C)=O)cc(-c4ccccc4OC)cn23)cc1OC`, the EC50 at Melanocortin receptor 4 was > 89.2 µM (inactive).
Turning to `O=C(O)c1cc(-c2cc(F)c(F)cc2F)[nH]n1`, the EC50 in assay [14] is > 100 µM (inactive).
As for `CCc1ccc(C=C2SC(=S)N(CCCC(=O)Nc3ccc(C(=O)O)cc3)C2=O)cc1`, the IC50 in assay [15] is 80 µM (inactive).
